The data set is described as follows: Drug loading (encapsulation) in co-nanoprecipitated particles. In kind it is physicochemical. As for the experimental part:
During a typical nanoparticle preparation, 5.5 mL of a 1 mg/mL acetone solution of efavirenz, ritonavir or lopinavir is added to a vial and left to evaporate overnight. To this vial 25 mg of the branched polymer and 25 mg of the polymer diblock were added and dissolved in 10 mL of acetone during 6-8 hours to ensure complete solubilisation. 1 mL of the 5 mg/mL solution of polymers and dissolved drug was added to 5 mL of stirring distilled water (500 rpm) and left for 24 hours for complete acetone evaporation (final concentration of polymer 1 mg/mL). During a typical nanoparticle preparation 5.5 mL of a 1 mg/mL acetone solution of irinotecan was added to a vial and left to evaporate overnight. To this vial, 25 mg of the branched polymer and 25 mg of the polymer diblock were added and dissolved in 10 mL of acetone during 6-8 hours to ensure complete solubilisation. 1 mL of the 5 mg/mL solution of polymers and dissolved drug was added to 5 mL of stirring water (500 rpm) and left for 24 hours for complete acetone evaporation.

Regarding `CCc1c2c(nc3ccc(OC(=O)N4CCC(N5CCCCC5)CC4)cc13)-c1cc3c(c(=O)n1C2)COC(=O)[C@]3(O)CC` [Irinotecan], the drug loading achieved entry was “effectively encapsulated at 10 wt % or 15 wt %”. On to `O=C1Nc2ccc(Cl)cc2[C@@](C#CC2CC2)(C(F)(F)F)O1` [Efavirenz], for which the drug loading achieved was 25 wt %.
